Laboratory results published in patent US6881841B2, “Dibenzosuberanyl piperazine derivatives and drug-resistance overcoming agents containing the derivatives” (priority 2000, dated 2005).

Experiments:
[1] = system: Chloroquine-resistant malaria plasmodium Plasmodium chabaudi (AS strain: chloroquine-resistant (3CQ)); test: Test 1: resistance overcoming effect, in vivo test with chloroquine-resistant mouse malaria strain; details: ICR male mice, days 0-3, counted on 5th day; for number of PRBCs per 10,000 red blood cells, Chloroquine 0 mg: test compound 50 mg/kg i.p. + chloroquine 0 mg/kg i.p.; for number of PRBCs per 10,000 red blood cells, Chloroquine 2 mg: test compound 50 mg/kg i.p. + chloroquine 2 mg/kg i.p.; for number of PRBCs per 10,000 red blood cells, Chloroquine 2 mg / number of PRBCs per 10,000 red blood cells, Chloroquine 3 mg: Control = chloroquine only; for number of PRBCs per 10,000 red blood cells, Chloroquine 3 mg: test compound 50 mg/kg i.p. + chloroquine 3 mg/kg i.p.
Experimental: With respect to Compounds 1 to 7, these invention compounds were tested for their resistance overcoming effect in an in vivo test making use of a chloroquine-resistant mouse malaria strain. The test was conducted following the following procedure.
Chloroquine-resistant malaria plasmodium Plasmodlium chabaudi (AS strain: chloroquine-resistant (3CQ)); and
Mice: ICR male mice of 4-5 weeks old (20 to 25 g)
(§1) • 1) Preparation of the compounds: Each test compound was dissolved beforehand in 1/10 volume of DMSO such that the dose of the compound to each mouse per administration would become a final concentration of 50 mg/kg/0.2 mL. The resulting solution was diluted with 0.85% physiological saline to provide a 10% DMSO suspension. • 2) Inoculation with the chloroquine-resistant malaria plasmodium, Plasmodium chabaudi (AS strain: chloroquine-resistant (3CQ): Parasitized red blood cells (PRBCs) (5×10^6 (the 6th power of 10) cells/0.2 mL) were also prepared with 0.85% physiological saline, and inoculated through the caudal vein of each mouse with a 26×½-gauge tuberculin needle. • 3) Administration of the compounds and chloroquine: Two hours after the inoculation with the plasmodium, each test compound (50 mg/kg/0.2 mL) was intraperitoneally administered with 21×½-gauge needles to three groups of mice per compound. Chloroquine solutions of three concentrations, which had been prepared with 0.85% physiological saline to give final concentrations of 0 mg/kg/0.1 mL, 2 mg/kg/0.1 mL and 3 mg/kg/0.1 mL, respectively, were then also administered intraperitoneally with 26×½-gauge tuberculin needles to the three groups of mice which had been administered with the compound. To three control groups, the three chloroquine solutions were only administered, respectively. The compound and chloroquine were administered four times in total, that is, on the 0th, 1st, 2nd and 3rd days after the inoculation with the plasmodium. • 4) Determination of effect: Every day after the inoculation with the plasmodium, the tail of each mouse was cut to a minimum at the tip thereof with scissors to cause bleeding, and a Giemsa staining specimen smeared with a thin film of the blood was prepared. On the 5th day, the number of PRBCs per 10,000 red blood cells was counted, and based on a comparison of the PRBC number with the corresponding number of the group administered only with chloroquine, the chloroquine resistance overcoming effect of the test compound was determined.

[2] = system: Chloroquine-resistant malaria plasmodium Plasmodium chabaudi (AS strain: chloroquine-resistant (3CQ)); test: Test 2: resistance overcoming effect of Compound 8, as Test 1 but determined on the fourth day; type: in vivo; details: for number of PRBCs per 10,000 red blood cells, Chloroquine 2 mg: test compound 50 mg/kg i.p. + chloroquine 2 mg/kg i.p.; for number of PRBCs per 10,000 red blood cells, Chloroquine 2 mg / number of PRBCs per 10,000 red blood cells, Chloroquine 3 mg: Control = chloroquine only; for number of PRBCs per 10,000 red blood cells, Chloroquine 3 mg: test compound 50 mg/kg i.p. + chloroquine 3 mg/kg i.p.
Experimental: as §1
Resistance overcoming effect of Compound 8 was tested in a similar manner as in Test 1. The time of determination of the effect was set on the fourth day.

[3] = ICR male mice, days 0-3, determined on fourth day

SMILES | melting point [°C] | number of PRBCs per 10,000 red blood cells, Chloroquine 0 mg [1] | number of PRBCs per 10,000 red blood cells, Chloroquine 2 mg [1] | number of PRBCs per 10,000 red blood cells, Chloroquine 3 mg [1] | number of PRBCs per 10,000 red blood cells, Chloroquine 0 mg ([2]; ICR male mice, test compound 50 mg/kg i.p. + chloroquine 0 mg/kg i.p., days 0-3, determined on fourth day) | number of PRBCs per 10,000 red blood cells, Chloroquine 2 mg [2, 3] | number of PRBCs per 10,000 red blood cells, Chloroquine 3 mg [2, 3] | chloroquine resistance overcoming effect (in words) ([2]; conclusion from Table 2)
OCC#CCN1CCN(C2c3ccccc3CCc3ccccc32)CC1 | 129 |  |  |  |  |  |  | 
C=CCCCCCCC(O)CN1CCN(C2c3ccccc3CCc3ccccc32)CC1 (centres unmarked) [Compound 1, 1-Dibenzosuberanyl-4-(2-hydroxydecan-9-en-1-yl)piperazine] |  | 4250 per 10,000 red blood cells | 3100 per 10,000 red blood cells | 280 per 10,000 red blood cells |  |  |  | 
C=CCCCCC(O)CN1CCN(C2c3ccccc3CCc3ccccc32)CC1 (centres unmarked) [Compound 2, 1-Dibenzosuberanyl-4-(2-hydroxy-7-octenyl)-piperazine] |  | 8450 per 10,000 red blood cells | 0 per 10,000 red blood cells | 0 per 10,000 red blood cells |  |  |  | 
C=CCCC(O)CN1CCN(C2c3ccccc3CCc3ccccc32)CC1 (centres unmarked) [Compound 3, 1-Dibenzosuberanyl-4-(2-hydroxy-5-hexenyl)-piperazine] |  | 4500 per 10,000 red blood cells |  | 292 per 10,000 red blood cells |  |  |  | 
C=CC(O)CN1CCN(C2c3ccccc3CCc3ccccc32)CC1 (centres unmarked) [Compound 4, 1-Dibenzosuberanyl-4-(2-hydroxy-3-butenyl)-piperazine] | 93 | 8000 per 10,000 red blood cells | 430 per 10,000 red blood cells | 0 per 10,000 red blood cells |  |  |  | 
C=CC(CO)N1CCN(C2c3ccccc3CCc3ccccc32)CC1 (centres unmarked) [Compound 5, 1-Dibenzosuberanyl-4-(1-hydroxybutan-3-en-2-yl)piperazine] | 123 |  |  | 0 per 10,000 red blood cells |  |  |  | 
CCCCCCCCC(O)CN1CCN(C2c3ccccc3CCc3ccccc32)CC1 (centres unmarked) [Compound 8, 1-Dibenzosuberanyl-4-(2-hydroxydecanyl)piperazine] |  |  |  |  | 7475 per 10,000 red blood cells | 4875 per 10,000 red blood cells | 3025 per 10,000 red blood cells | overcoming of chloroquine resistance
CCN(CC)CCCC(C)Nc1ccnc2cc(Cl)ccc12 (centres unmarked) [Control, chloroquine, reference compound] |  |  | 4900 per 10,000 red blood cells | 3750 per 10,000 red blood cells |  | 4525 per 10,000 red blood cells | 3600 per 10,000 red blood cells | 
